Reference: the NIST ThermoML archive (doi:10.1021/acs.jced.5b00285)
Numbers after ± are expanded uncertainties.

Conditions: 101.33 kPa, Liquid; for electrical conductivity: Alternating current cell with electrodes; for mass density: Vibrating tube method

Which results are given for `CCCCCCCCn1cc[n+](C)c1.O=S(=O)([N-]S(=O)(=O)C(F)(F)F)C(F)(F)F`?
electrical conductivity (273.15 K): 0.0308 ± 0.0012 S/m; electrical conductivity (278.15 K): 0.0432 ± 0.0017 S/m; electrical conductivity (283.15 K): 0.059 ± 0.0024 S/m; electrical conductivity (288.15 K): 0.0784 ± 0.0031 S/m; electrical conductivity (293.15 K): 0.102 ± 0.0041 S/m; electrical conductivity (298.15 K): 0.131 ± 0.0052 S/m; electrical conductivity (303.15 K): 0.164 ± 0.0066 S/m; electrical conductivity (308.15 K): 0.204 ± 0.0041 S/m; electrical conductivity (313.15 K): 0.246 ± 0.0098 S/m; electrical conductivity (318.15 K): 0.298 ± 0.006 S/m; electrical conductivity (323.15 K): 0.351 ± 0.014 S/m; electrical conductivity (328.15 K): 0.415 ± 0.0083 S/m; electrical conductivity (333.15 K): 0.478 ± 0.019 S/m; electrical conductivity (338.15 K): 0.556 ± 0.011 S/m; electrical conductivity (343.15 K): 0.627 ± 0.025 S/m; electrical conductivity (348.15 K): 0.72 ± 0.014 S/m; electrical conductivity (353.15 K): 0.801 ± 0.032 S/m; electrical conductivity (358.15 K): 0.906 ± 0.018 S/m; electrical conductivity (368.15 K): 1.11 ± 0.022 S/m; electrical conductivity (378.15 K): 1.34 ± 0.027 S/m; electrical conductivity (388.15 K): 1.59 ± 0.032 S/m; electrical conductivity (398.15 K): 1.85 ± 0.037 S/m; electrical conductivity (408.15 K): 2.13 ± 0.043 S/m; electrical conductivity (418.15 K): 2.42 ± 0.048 S/m; electrical conductivity (428.15 K): 2.72 ± 0.054 S/m; electrical conductivity (438.15 K): 3.04 ± 0.061 S/m; electrical conductivity (448.15 K): 3.36 ± 0.067 S/m; electrical conductivity (458.15 K): 3.69 ± 0.074 S/m; electrical conductivity (468.15 K): 4.03 ± 0.081 S/m

Which viscosity (278.15 K) does the source give for `CC(=O)[O-].CCn1cc[n+](C)c1` [1-ethyl-3-methylimidazolium acetate] here?
Its viscosity is 701.2 mPa·s.

What about the mass density (278.15 K) of the same compound?
Its mass density is 1111.95 ± 13 kg/m3.

What about the viscosity (288.15 K) of the same compound?
Its viscosity is 288 ± 140 mPa·s.

What about the mass density (288.15 K) of the same compound?
Its mass density is 1105.67 ± 13 kg/m3.

What about the viscosity (298.15 K) of the same compound?
The viscosity was 141.1 ± 40 mPa·s.

What about the electrical conductivity (298.15 K) of the same compound?
The electrical conductivity was 0.278 ± 0.0056 S/m.

And the mass density (298.15 K)?
The mass density was 1099.44 ± 13 kg/m3.

What about the viscosity (308.15 K) of the same compound?
The viscosity was 78.27 ± 9.7 mPa·s.

And the electrical conductivity (308.15 K)?
The electrical conductivity was 0.471 ± 0.0094 S/m.

What about the mass density (308.15 K) of the same compound?
The mass density was 1093.24 ± 12 kg/m3.

What about the viscosity (318.15 K) of the same compound?
The viscosity was 47.69 ± 3.3 mPa·s.

And the electrical conductivity (318.15 K)?
Its electrical conductivity is 0.733 ± 0.015 S/m.

What about the mass density (318.15 K) of the same compound?
The mass density was 1087.13 ± 12 kg/m3.

And the viscosity (328.15 K)?
The viscosity was 31.26 ± 2.2 mPa·s.

What about the electrical conductivity (328.15 K) of the same compound?
Its electrical conductivity is 1.07 ± 0.021 S/m.

What about the mass density (328.15 K) of the same compound?
The mass density was 1081.09 ± 12 kg/m3.

What about the viscosity (338.15 K) of the same compound?
The viscosity was 21.77 ± 1.5 mPa·s.

What about the electrical conductivity (338.15 K) of the same compound?
Its electrical conductivity is 1.48 ± 0.029 S/m.

What about the mass density (338.15 K) of the same compound?
The mass density was 1075.11 ± 12 kg/m3.

And the viscosity (348.15 K)?
Its viscosity is 16.01 ± 1.1 mPa·s.

What about the electrical conductivity (348.15 K) of the same compound?
The electrical conductivity was 1.96 ± 0.039 S/m.

And the mass density (348.15 K)?
Its mass density is 1069.17 ± 12 kg/m3.

What about the viscosity (358.15 K) of the same compound?
The viscosity was 12.19 ± 0.84 mPa·s.

And the electrical conductivity (358.15 K)?
Its electrical conductivity is 2.5 ± 0.05 S/m.

And the mass density (358.15 K)?
Its mass density is 1063.3 ± 12 kg/m3.

And the viscosity (368.15 K)?
Its viscosity is 9.558 ± 0.66 mPa·s.

And the electrical conductivity (368.15 K)?
Its electrical conductivity is 3.11 ± 0.062 S/m.

And the viscosity (378.15 K)?
Its viscosity is 7.71 ± 0.53 mPa·s.

What about the electrical conductivity (378.15 K) of the same compound?
Its electrical conductivity is 3.8 ± 0.076 S/m.

What about the viscosity (388.15 K) of the same compound?
Its viscosity is 6.362 ± 0.44 mPa·s.

And the electrical conductivity (388.15 K)?
Its electrical conductivity is 4.53 ± 0.091 S/m.

What about the viscosity (398.15 K) of the same compound?
Its viscosity is 5.356 ± 0.37 mPa·s.

And the electrical conductivity (398.15 K)?
The electrical conductivity was 5.31 ± 0.11 S/m.

What about the viscosity (408.15 K) of the same compound?
Its viscosity is 4.589 ± 0.32 mPa·s.

And the electrical conductivity (408.15 K)?
Its electrical conductivity is 6.13 ± 0.12 S/m.

And the electrical conductivity (418.15 K)?
The electrical conductivity was 6.92 ± 0.14 S/m.
